Test results published in ChEMBL document CHEMBL1201862, “PubChem BioAssay data set” (2004).
Where a name gives a salt, the structure may show the parent alone. The source made the active and inactive calls.

Tests used:
Caspase-3 = molecular target: T1, Caspase-3 (Homo sapiens, UniProt P42574); type: functional;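 also: Dose-response selectivity test against caspase-3 for candidate inhibitors of sentrin-specific proteases (SENPs)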
T1 sequence (P42574 whole entry): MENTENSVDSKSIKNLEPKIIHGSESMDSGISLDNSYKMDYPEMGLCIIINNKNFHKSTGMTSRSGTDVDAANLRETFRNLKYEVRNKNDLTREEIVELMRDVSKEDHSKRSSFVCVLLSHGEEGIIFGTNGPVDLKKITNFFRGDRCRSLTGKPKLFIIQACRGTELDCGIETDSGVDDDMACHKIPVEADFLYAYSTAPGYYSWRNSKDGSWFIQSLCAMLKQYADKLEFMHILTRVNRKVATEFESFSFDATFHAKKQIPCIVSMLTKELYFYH

[1] = molecular target: T2, Sentrin-specific protease 7 (Homo sapiens, UniProt Q9BQF6); type: functional;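 also: Luminescence-based dose-response confirmation of ultra-high-throughput screening hits, measuring inhibition of SENP7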
T2 sequence (Q9BQF6 whole entry): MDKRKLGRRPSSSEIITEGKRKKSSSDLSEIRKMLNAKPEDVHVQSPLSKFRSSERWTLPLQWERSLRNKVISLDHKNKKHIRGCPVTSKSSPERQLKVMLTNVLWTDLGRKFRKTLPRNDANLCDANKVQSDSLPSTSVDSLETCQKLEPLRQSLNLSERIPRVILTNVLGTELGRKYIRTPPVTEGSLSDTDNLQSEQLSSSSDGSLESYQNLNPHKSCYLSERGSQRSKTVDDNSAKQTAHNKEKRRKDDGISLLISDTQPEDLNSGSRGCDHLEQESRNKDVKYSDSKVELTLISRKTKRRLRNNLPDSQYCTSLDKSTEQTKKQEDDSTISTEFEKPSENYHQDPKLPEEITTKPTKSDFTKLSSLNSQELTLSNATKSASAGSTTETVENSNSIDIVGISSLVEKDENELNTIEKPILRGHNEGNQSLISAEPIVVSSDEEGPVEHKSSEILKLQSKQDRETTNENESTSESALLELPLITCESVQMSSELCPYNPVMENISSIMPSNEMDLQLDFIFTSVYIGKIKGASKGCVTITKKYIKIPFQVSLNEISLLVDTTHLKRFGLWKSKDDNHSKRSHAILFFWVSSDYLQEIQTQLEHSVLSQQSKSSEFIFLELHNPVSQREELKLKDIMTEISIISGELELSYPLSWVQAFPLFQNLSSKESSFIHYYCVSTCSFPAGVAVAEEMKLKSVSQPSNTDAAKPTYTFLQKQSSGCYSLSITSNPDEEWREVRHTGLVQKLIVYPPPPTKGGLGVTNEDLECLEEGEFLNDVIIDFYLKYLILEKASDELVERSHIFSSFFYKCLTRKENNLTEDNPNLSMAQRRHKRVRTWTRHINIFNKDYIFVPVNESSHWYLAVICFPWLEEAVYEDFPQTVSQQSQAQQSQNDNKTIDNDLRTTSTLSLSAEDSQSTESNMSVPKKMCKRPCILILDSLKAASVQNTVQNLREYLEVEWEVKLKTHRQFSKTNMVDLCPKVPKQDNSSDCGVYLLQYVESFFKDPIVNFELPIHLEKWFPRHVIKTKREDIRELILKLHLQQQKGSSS

[2] = molecular target: T3, Sentrin-specific protease 6 (Homo sapiens, UniProt Q9GZR1); type: functional;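 also: Luminescence-based dose-response confirmatory assay of SENP6 inhibition, following up an ultra-high-throughput screen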
T3 sequence (Q9GZR1 whole entry): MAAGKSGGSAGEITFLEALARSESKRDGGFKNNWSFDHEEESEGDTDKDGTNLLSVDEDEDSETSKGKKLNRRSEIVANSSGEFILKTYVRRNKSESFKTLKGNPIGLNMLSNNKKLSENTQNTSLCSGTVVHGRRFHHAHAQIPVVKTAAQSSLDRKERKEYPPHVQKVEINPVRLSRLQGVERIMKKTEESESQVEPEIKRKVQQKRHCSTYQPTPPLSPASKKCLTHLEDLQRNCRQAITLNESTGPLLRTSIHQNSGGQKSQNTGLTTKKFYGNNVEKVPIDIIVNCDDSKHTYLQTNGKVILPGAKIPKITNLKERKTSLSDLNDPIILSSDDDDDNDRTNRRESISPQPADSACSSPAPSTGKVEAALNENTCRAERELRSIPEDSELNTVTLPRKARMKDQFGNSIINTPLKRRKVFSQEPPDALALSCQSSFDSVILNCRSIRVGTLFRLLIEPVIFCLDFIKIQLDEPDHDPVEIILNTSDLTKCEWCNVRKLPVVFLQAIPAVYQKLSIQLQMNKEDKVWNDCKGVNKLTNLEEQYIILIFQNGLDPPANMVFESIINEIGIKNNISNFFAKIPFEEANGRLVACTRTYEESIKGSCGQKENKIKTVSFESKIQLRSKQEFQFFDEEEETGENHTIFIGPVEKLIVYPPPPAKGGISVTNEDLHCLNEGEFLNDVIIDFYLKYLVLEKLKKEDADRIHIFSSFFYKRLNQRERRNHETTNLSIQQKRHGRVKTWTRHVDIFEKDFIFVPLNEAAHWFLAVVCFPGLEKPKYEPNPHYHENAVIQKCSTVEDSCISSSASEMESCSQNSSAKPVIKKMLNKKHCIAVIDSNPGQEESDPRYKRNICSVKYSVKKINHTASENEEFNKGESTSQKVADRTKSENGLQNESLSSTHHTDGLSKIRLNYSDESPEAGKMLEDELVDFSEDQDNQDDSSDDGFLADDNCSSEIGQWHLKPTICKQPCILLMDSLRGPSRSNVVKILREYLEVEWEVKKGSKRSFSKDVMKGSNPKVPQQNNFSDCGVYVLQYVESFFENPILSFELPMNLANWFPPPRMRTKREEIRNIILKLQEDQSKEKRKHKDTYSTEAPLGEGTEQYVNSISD

[3] = molecular target: T4, Sentrin-specific protease 8 (Homo sapiens, UniProt Q96LD8); type: functional;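 also: luminescence read-out of SENP8 inhibition, dose-response confirmation following an ultra-high-throughput screen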
T4 sequence (Q96LD8 whole entry): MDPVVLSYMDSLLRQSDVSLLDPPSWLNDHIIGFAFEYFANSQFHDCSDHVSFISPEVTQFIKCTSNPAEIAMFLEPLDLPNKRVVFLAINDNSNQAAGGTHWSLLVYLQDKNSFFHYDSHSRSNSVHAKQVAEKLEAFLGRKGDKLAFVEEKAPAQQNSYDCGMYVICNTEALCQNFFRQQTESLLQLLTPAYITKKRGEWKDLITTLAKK

[4] = luciferase reporter signal suppression in cells – H4 neuroglioma cells, luminescence, dose response (AID 1990); type: functional, cell-based
[5] = luciferase reporter signal reduction – luminescence, H4-C neuroglioblastoma cells, dose response (AID 2458); type: functional, cell-based;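 also: H4 neuroglioblastoma cells stably carrying a luciferase reporter gene fusion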
BJ [6] = assay: BJ-TERT fibroblast viability loss – cell-based, RAS-independent, luminescence, dose response (AID 1933); type: functional; conditions: Homo sapiens
cells [7] = type: functional, cell-based
[8] = Luminescence Cell-Based Dose Response HTS to Identify Inhibitors of 5'UTR Stem-Loop Driven Prion Protein mRNA Translation in H4 Neuroglioblastoma Cells. [Related pubchem assays: 1827 (Project Summary), 1813 (Primary HTS)]; type: functional
[9] = alpha-synuclein stem-loop luciferase translation blockers – H4 neuroglioma cells, luminescence, confirmation (AID 1988); type: functional, cell-based
BJ [10] = assay: cells; type: functional, cell-based; conditions: Homo sapiens
BJ [11] = assay: BJ-TERT-LT-ST fibroblast viability loss – cell-based, RAS-independent, luminescence, dose response (AID 1935); type: functional; conditions: Homo sapiens;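 also: BJ fibroblasts immortalized with TERT plus LT and ST oncogenes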
[12] = DRD fibroblast viability loss – cell-based, non-viral oncogenic, luminescence, dose response (AID 1934); type: functional; conditions: Homo sapiens
[13] = alpha-synuclein stem-loop translation blockers – luminescence, H4 neuroglioblastoma cells, dose confirmation, confirmation (AID 2454); type: functional, cell-based;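 also: H4 neuroglioblastoma cells carrying an alpha-synuclein 5'UTR luciferase reporter; potency for inhibition of the luciferase signal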
BJ [14] = assay: growth inhibition of engineered Ras-driven BJ cells – cell-based, alamar blue fluorescence, cherrypicked samples, dose response (AID 2631); type: functional; conditions: Homo sapiens;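 also: confirmatory dose-response assay in RAS-dependent BJ fibroblasts engineered with TERT, LT and ST, with cytotoxicity read by fluorescence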
cells [15] = type: functional, cell-based; remark: listed apart in the source
[16] = molecular target: T5, Nuclear receptor subfamily 0 group B member 1 (Homo sapiens, UniProt P51843); type: functional, cell-based;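 also: HEK293T cells transfected with SF-1 and DAX-1 plus StAR promoter luciferase reporter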
T5 sequence (P51843 whole entry): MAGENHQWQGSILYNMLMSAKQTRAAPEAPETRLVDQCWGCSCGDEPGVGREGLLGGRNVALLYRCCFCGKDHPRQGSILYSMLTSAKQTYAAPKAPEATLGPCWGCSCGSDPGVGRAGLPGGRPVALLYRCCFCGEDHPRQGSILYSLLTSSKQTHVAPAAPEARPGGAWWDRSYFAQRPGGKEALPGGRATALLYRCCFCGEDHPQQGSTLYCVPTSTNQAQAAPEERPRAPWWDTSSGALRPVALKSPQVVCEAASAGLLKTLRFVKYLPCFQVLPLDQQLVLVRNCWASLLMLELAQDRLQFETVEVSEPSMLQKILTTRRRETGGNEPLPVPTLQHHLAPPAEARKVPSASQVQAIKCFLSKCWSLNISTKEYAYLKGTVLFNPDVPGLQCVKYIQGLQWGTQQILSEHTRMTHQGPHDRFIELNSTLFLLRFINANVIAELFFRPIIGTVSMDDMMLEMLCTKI

Paired box protein Pax-8 = Paired box protein Pax-8 (Homo sapiens, UniProt Q06710); assay: PAX8 transcriptional activity inhibition in RMG-I – RMG-I cells, luciferase, cherry-pick, dose response (AID 687027); type: functional, cell-based;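 also: luciferase reporter driven by Pax8 target thyroperoxidase promoter measured by SteadyGlo luminescence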
[17] = Fluorescence-based cell-based high throughput dose response assay for inhibitors of the interaction of nucleotide-binding oligomerization domain containing 2 (NOD2) and the receptor-interacting serine-threonine kinase 2 (RIPK2).; type: functional; conditions: Homo sapiens
[18] = A549 cell cytotoxicity, dose response, cytotoxicity control, plate reader, cherry-pick, antagonist series (AID 743412); type: functional, cell-based
[19] = toxicity toward HepG2 liver cells – cell-based, plate reader, cherry-pick, antagonist series, cytotoxicity control, dose response (AID 743416); type: functional
[20] = blockers of bursicon-stimulated LGR2 cAMP reporter – cell-based, HEK293, CRE-luciferase reporter, cherry pick, set 2, dose response (AID 743343); type: functional;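 also: transfected cells were stimulated with diluted bursicon conditioned medium after compound addition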
[21] = blockade of melanocortin 4 receptor signaling – cell-based, plate reader, cherry pick, counter-screen for LGR2 antagonist project, dose response (AID 743444); type: functional;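 also: transfected HEK 293 cells stimulated with alpha-MSH peptide; potency of inhibitors of the alpha-MSH evoked signal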
[22] = viability loss in HEK293 cells – cell-based, plate reader, cherry-picked samples, cytotoxicity control, dose response (AID 743446); type: functional
Escherichia coli [23] = assay: microbe, parasite or virus in culture
Escherichia coli [24] = assay: microbe, parasite or virus in culture; remark: listed apart in the source
Cytochrome P450 2C19 = Cytochrome P450 2C19 (Homo sapiens, UniProt P33261); assay: Cytochrome panel assay with activity outcomes. Panel member name: p450-cyp2c19 Compounds with AC50 equal or less than 10 uM are considered active; type: functional; conditions: read-out: AC50
Cytochrome P450 1A2 = molecular target: T6, Cytochrome P450 1A2 (Homo sapiens, UniProt P05177);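 also: PubChem cytochrome P450 panel assay, CYP1A2 panel member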
T6 sequence (P05177 whole entry): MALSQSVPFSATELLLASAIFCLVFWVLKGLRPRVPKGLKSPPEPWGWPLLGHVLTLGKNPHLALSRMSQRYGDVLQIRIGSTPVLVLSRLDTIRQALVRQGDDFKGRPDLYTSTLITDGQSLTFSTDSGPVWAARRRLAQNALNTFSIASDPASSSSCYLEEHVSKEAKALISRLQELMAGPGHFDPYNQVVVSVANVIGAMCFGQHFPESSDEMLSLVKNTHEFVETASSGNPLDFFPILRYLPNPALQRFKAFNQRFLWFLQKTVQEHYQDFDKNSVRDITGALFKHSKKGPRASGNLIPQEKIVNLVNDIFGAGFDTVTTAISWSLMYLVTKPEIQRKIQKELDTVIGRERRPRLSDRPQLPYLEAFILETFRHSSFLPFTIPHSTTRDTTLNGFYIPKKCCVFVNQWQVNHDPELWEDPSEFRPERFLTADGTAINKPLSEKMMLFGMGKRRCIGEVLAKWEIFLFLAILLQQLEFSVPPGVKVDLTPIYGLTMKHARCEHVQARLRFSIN

Cytochrome P450 3A4 = Cytochrome P450 3A4 (Homo sapiens, UniProt P08684);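 also: CYP3A4 tested as one member of a cytochrome P450 panel screen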
[25] = test system: Streptococcus sp. 'group A'; assay: Streptococcus pyogenes SK(-)GAS viability under kanamycin – luminescence, BacTiterGlo, confirmation, counter-screen for streptokinase expression inhibitor project, dose response (AID 1900); type: functional, organism-based
Streptococcus = assay: GAS UMAA2166 growth inhibition – luminescence, BacTiterGlo, counter-screen for streptokinase expression inhibitor project, dose response (AID 1915); type: functional, organism-based;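 also: potency for reduction of bacterial viability or growth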

Chain of Paired box protein Pax-8 (Q06710 whole entry, the tested form may be a part): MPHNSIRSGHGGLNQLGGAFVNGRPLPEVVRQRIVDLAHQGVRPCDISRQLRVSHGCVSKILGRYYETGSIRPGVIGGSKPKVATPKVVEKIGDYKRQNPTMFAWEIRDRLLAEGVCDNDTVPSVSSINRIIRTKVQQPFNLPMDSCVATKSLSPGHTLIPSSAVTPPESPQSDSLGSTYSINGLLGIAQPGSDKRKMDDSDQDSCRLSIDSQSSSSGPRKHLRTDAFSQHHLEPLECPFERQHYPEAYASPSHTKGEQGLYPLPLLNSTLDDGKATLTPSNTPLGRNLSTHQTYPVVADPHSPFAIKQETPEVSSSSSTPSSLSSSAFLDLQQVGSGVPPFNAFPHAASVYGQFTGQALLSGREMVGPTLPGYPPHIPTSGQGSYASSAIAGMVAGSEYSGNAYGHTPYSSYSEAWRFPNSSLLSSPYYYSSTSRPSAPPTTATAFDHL
Chain of Cytochrome P450 3A4 (P08684 whole entry): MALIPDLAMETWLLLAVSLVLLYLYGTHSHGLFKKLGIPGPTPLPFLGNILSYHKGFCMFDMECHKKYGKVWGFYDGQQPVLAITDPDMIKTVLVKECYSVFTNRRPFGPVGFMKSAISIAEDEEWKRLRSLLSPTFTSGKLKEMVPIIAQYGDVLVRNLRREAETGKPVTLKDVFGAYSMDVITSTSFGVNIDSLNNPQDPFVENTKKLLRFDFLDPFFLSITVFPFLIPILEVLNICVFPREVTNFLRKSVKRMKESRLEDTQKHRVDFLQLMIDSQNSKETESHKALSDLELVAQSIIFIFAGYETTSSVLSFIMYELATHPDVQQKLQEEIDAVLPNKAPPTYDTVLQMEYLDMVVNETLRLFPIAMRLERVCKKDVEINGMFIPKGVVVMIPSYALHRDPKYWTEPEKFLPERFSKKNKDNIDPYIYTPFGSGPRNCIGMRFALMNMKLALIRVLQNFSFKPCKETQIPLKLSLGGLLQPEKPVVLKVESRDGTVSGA
Chain of Cytochrome P450 2C19 (P33261 whole entry): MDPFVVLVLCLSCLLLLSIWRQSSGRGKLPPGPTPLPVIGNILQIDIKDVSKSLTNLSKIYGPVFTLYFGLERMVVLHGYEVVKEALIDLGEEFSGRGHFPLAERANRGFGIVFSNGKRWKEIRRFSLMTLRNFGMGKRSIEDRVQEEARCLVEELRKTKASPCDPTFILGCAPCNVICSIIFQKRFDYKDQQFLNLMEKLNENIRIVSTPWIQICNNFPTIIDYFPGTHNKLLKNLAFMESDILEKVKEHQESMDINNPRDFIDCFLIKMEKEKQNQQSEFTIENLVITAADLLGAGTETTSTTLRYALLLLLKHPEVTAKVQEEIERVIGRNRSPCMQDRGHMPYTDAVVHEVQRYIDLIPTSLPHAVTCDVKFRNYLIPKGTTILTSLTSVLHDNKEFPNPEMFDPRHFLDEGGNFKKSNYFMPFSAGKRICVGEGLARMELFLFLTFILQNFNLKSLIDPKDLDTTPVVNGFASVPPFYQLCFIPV

COc1ccc2nc(NC(=O)c3cccc(OCc4c(C)noc4C)c3)sc2c1
active: IC50 [1] 3.67 µM | IC50 [2] 4.78 µM
inactive: IC50 (Caspase-3) > 100 µM | IC50 [3] > 100 µM

O=C(c1cc([N+](=O)[O-])ccc1N1CCOCC1)N1CCN(c2ccccc2)CC1
active: EC50 [4] 0.681 µM | EC50 [5] 0.501 µM | EC50 (BJ [6]) 0.309 µM | EC50 (cells [7]) 0.959 µM | EC50 [8] < 0.1 µM | EC50 [9] < 0.1 µM | EC50 [13] 0.738 µM | EC50 (BJ [14]) < 0.104 µM | AC50 (Paired box protein Pax-8) 3.76 µM
inactive: IC50 (cells [15]) > 67.5 µM | IC50 [16] > 67.5 µM
inconclusive: EC50 (BJ [10]) 1.2 µM | EC50 (BJ [11]) 0.338 µM | EC50 [12] 0.633 µM

N#CC1c2ccccc2-n2nncc2CN1Cc1cc(Cl)cc(Cl)c1 (stereo not drawn)
active: IC50 [17] 5.8 µM | AC50 (Paired box protein Pax-8) 10.2 µM | AC50 [18] 15.2 µM | AC50 [19] 7.48 µM | AC50 [20] 3.37 µM | AC50 [21] 2.45 µM | AC50 [22] 6.5 µM | AC50 (Escherichia coli [23]) 22.5 µM | AC50 (Escherichia coli [24]) 2.36 µM

c1ccc(CN2CCC3(CCCc4ccccc43)CC2)cc1
inconclusive: AC50 (Cytochrome P450 2C19) 10 µM | AC50 (Cytochrome P450 1A2) 31.6 µM | AC50 (Cytochrome P450 3A4)

Cc1cccc(/C=N\N=C\c2cccc(C)c2)c1
active: IC50 (Caspase-3) 24.6 µM | IC50 [1] 7.09 µM | IC50 [2] 27.6 µM | IC50 [3] 47 µM

CN(C)[C@@H]1C(O)=C(C(N)=O)C(=O)[C@@]2(O)C(O)=C3C(=O)c4c(O)ccc(Cl)c4[C@@](C)(O)[C@H]3C[C@@H]12 [CHLORTETRACYCLINE HYDROCHLORIDE]
active: EC50 [25] < 0.06 µM | EC50 (Streptococcus) 0.148 µM | AC50 (Escherichia coli [23]) 19.8 µM | AC50 (Escherichia coli [24]) 0.93 µM
